Measurements: article PMC9841532, “Exploring the Effect of Halogenation in a Series of Potent and Selective A2B Adenosine Receptor Antagonists” (Journal of Medicinal Chemistry, 2022)

Biological target: T1, hA2BAR (Homo sapiens, UniProt P29275)
T1 construct: host or cells: HEK-293 (HEK-293-A2B) cell membranes
T1 sequence (P29275 1-332): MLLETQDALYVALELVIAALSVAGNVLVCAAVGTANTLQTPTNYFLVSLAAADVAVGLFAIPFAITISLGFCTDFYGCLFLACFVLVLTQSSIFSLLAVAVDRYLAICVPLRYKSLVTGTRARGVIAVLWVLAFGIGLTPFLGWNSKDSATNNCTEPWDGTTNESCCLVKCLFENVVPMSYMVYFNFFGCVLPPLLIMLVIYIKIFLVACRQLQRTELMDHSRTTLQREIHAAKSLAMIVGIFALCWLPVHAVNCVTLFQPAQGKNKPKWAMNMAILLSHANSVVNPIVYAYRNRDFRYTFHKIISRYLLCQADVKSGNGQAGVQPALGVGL
Assay: Radioligand binding competition, [3H]DPCPX, membranes from HEK-293-A2B cells
Conditions: 1 μM, [3H]DPCPX, human HEK-293 cells, n = 2
Procedure: (§1) All ligands reported in Tables 1–5 were obtained and tested as racemic mixtures. The whole set was evaluated in silico with a combination of a Rdkit[37] PAINS filter and Instant JChem from Chemaxon (https://www.chemaxon.com), to rule out the possibility that these ligands can be promiscuous pan-assay interference compounds (PAINS) and to assess their bioavailability, respectively. […] The stereoisomers of selected compounds were obtained by chiral resolution and tested at the four human AR subtypes in their enantiopure forms (Table 6).
(§2) A brief description is given below. […] Non-specific binding was determined in the presence of 10 μM R-PIA. The reaction mixture was incubated at 25 °C for 60 min. […] The reaction mixture was incubated at 25 °C for 30 min. […] The reaction mixture was incubated at 25 °C for 30 min. […] Non-specific binding was determined in the presence of 100 μM R-PIA. […] After the incubation time, membranes were washed and filtered and radioactivity was detected in a MicroBeta TriLux reader (PerkinElmer).

% at 1 μM hA2B (percentage displacement of specific binding)	Structure (SMILES)
48%	CC1=C(C(=O)OC(C)C)C(c2ccsc2)n2c(nc3ccc(Cl)cc32)N1 (stereo not shown) [15p]
26%	CC1=C(C(=O)OC(C)C)C(c2ccoc2)n2c(nc3ccc(Br)cc32)N1 (stereo not shown) [15t]
1%	CCOC(=O)C1=C(C)Nc2nc3ccc(Br)cc3n2C1c1cccs1 (stereo not shown) [15u]
11%	CC1=C(C(=O)OC(C)C)C(c2cccs2)n2c(nc3ccc(Br)cc32)N1 (stereo not shown) [15v]

The remaining lines, values behind:

Structure (SMILES)	% at 1 μM hA2B (percentage displacement of specific binding)
CC1=C(C(=O)OC(C)C)C(c2ccsc2)n2c(nc3cc(Br)c(Br)cc32)N1 (stereo not shown) [14x]	9%
CCOC(=O)C1=C(C)Nc2nc3ccc(F)cc3n2C1c1cccs1 (stereo not shown) [15e]	37%
CC1=C(C(=O)OC(C)C)C(c2cccs2)n2c(nc3ccc(F)cc32)N1 (stereo not shown) [15f]	23%
CCOC(=O)C1=C(C)Nc2nc3ccc(Cl)cc3n2C1c1ccco1 (stereo not shown) [15i]	18%
CC1=C(C(=O)OC(C)C)C(c2ccoc2)n2c(nc3ccc(Cl)cc32)N1 (stereo not shown) [15l]	50%
CCOC(=O)C1=C(C)Nc2nc3ccc(Cl)cc3n2C1c1cccs1 (stereo not shown) [15m]	1%
CC1=C(C(=O)OC(C)C)C(c2cccs2)n2c(nc3ccc(Cl)cc32)N1 (stereo not shown) [15n]	7%
CCOC(=O)C1=C(C)Nc2nc3ccc(Cl)cc3n2C1c1ccsc1 (stereo not shown) [15o]	50%
CCOC(=O)C1=C(C)Nc2nc3ccc(Br)cc3n2C1c1ccco1 (stereo not shown) [15q]	48%

Biological target: T2, hA1AR (Homo sapiens, UniProt P30542)
T2 sequence (P30542 1-326): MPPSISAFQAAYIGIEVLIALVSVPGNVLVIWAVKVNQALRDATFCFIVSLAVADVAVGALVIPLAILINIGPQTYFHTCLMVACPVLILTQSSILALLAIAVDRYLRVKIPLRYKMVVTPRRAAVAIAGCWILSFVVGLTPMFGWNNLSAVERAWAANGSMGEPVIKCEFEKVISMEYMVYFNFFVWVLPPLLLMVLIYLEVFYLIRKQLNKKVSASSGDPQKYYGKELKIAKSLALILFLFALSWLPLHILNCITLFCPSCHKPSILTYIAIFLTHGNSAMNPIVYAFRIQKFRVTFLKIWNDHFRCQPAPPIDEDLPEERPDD
Assay: Radioligand binding competition, [3H]DPCPX, membranes from CHO-A1 cells
Conditions: 1 μM, [3H]DPCPX, human CHO cells, n = 2
Procedure: as §1, §2

% at 1 μM hA1 (percentage displacement of specific binding)	Structure (SMILES)
7%	CC1=C(C(=O)OC(C)C)C(c2ccsc2)n2c(nc3ccc(Cl)cc32)N1 (stereo not shown) [15p]
11%	CC1=C(C(=O)OC(C)C)C(c2ccoc2)n2c(nc3ccc(Br)cc32)N1 (stereo not shown) [15t]
1%	CCOC(=O)C1=C(C)Nc2nc3ccc(Br)cc3n2C1c1cccs1 (stereo not shown) [15u]
1%	CC1=C(C(=O)OC(C)C)C(c2cccs2)n2c(nc3ccc(Br)cc32)N1 (stereo not shown) [15v]

More lines, now with the values behind:

Structure (SMILES)	% at 1 μM hA1 (percentage displacement of specific binding)
CC1=C(C(=O)OC(C)C)C(c2ccsc2)n2c(nc3cc(Br)c(Br)cc32)N1 (stereo not shown) [14x]	4%
CCOC(=O)C1=C(C)Nc2nc3ccc(F)cc3n2C1c1cccs1 (stereo not shown) [15e]	25%
CC1=C(C(=O)OC(C)C)C(c2cccs2)n2c(nc3ccc(F)cc32)N1 (stereo not shown) [15f]	11%
CCOC(=O)C1=C(C)Nc2nc3ccc(Cl)cc3n2C1c1ccco1 (stereo not shown) [15i]	26%
CC1=C(C(=O)OC(C)C)C(c2ccoc2)n2c(nc3ccc(Cl)cc32)N1 (stereo not shown) [15l]	6%
CCOC(=O)C1=C(C)Nc2nc3ccc(Cl)cc3n2C1c1cccs1 (stereo not shown) [15m]	2%
CC1=C(C(=O)OC(C)C)C(c2cccs2)n2c(nc3ccc(Cl)cc32)N1 (stereo not shown) [15n]	1%
CCOC(=O)C1=C(C)Nc2nc3ccc(Cl)cc3n2C1c1ccsc1 (stereo not shown) [15o]	4%
CCOC(=O)C1=C(C)Nc2nc3ccc(Br)cc3n2C1c1ccco1 (stereo not shown) [15q]	22%

Biological target: T3, hA2AAR (Homo sapiens, UniProt P29274)
T3 construct: expressed in transfected cells; host or cells: HeLa (HeLa-A2A) cell membranes
T3 sequence (P29274 whole entry): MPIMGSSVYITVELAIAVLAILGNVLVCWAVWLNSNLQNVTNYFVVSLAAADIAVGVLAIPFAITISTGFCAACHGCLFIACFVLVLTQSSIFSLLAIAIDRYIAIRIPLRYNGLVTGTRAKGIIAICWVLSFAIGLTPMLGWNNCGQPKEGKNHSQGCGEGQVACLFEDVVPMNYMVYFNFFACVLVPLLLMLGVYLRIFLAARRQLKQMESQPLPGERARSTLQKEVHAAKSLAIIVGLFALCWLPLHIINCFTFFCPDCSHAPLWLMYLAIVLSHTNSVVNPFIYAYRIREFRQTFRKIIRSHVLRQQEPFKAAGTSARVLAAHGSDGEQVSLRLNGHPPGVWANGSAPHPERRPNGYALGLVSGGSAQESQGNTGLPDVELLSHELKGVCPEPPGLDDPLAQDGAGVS
Assay: Radioligand binding competition, [3H]ZM241385, membranes from HeLa-A2A cells
Conditions: 1 μM, [3H]ZM241385, human HeLa cells, n = 2
Procedure: as §1, §2

% at 1 μM hA2A (percentage displacement of specific binding)	Structure (SMILES)
9%	CC1=C(C(=O)OC(C)C)C(c2ccsc2)n2c(nc3ccc(Cl)cc32)N1 (stereo not shown) [15p]
3%	CC1=C(C(=O)OC(C)C)C(c2ccoc2)n2c(nc3ccc(Br)cc32)N1 (stereo not shown) [15t]
5%	CCOC(=O)C1=C(C)Nc2nc3ccc(Br)cc3n2C1c1cccs1 (stereo not shown) [15u]
6%	CC1=C(C(=O)OC(C)C)C(c2cccs2)n2c(nc3ccc(Br)cc32)N1 (stereo not shown) [15v]

The remaining lines, values behind:

Structure (SMILES)	% at 1 μM hA2A (percentage displacement of specific binding)
CC1=C(C(=O)OC(C)C)C(c2ccsc2)n2c(nc3cc(Br)c(Br)cc32)N1 (stereo not shown) [14x]	1%
CCOC(=O)C1=C(C)Nc2nc3ccc(F)cc3n2C1c1cccs1 (stereo not shown) [15e]	1%
CC1=C(C(=O)OC(C)C)C(c2cccs2)n2c(nc3ccc(F)cc32)N1 (stereo not shown) [15f]	2%
CCOC(=O)C1=C(C)Nc2nc3ccc(Cl)cc3n2C1c1ccco1 (stereo not shown) [15i]	2%
CC1=C(C(=O)OC(C)C)C(c2ccoc2)n2c(nc3ccc(Cl)cc32)N1 (stereo not shown) [15l]	4%
CCOC(=O)C1=C(C)Nc2nc3ccc(Cl)cc3n2C1c1cccs1 (stereo not shown) [15m]	3%
CC1=C(C(=O)OC(C)C)C(c2cccs2)n2c(nc3ccc(Cl)cc32)N1 (stereo not shown) [15n]	3%
CCOC(=O)C1=C(C)Nc2nc3ccc(Cl)cc3n2C1c1ccsc1 (stereo not shown) [15o]	2%
CCOC(=O)C1=C(C)Nc2nc3ccc(Br)cc3n2C1c1ccco1 (stereo not shown) [15q]	21%

Biological target: T4, hA3AR (Homo sapiens, UniProt P0DMS8)
T4 construct: expressed in transfected cells; host or cells: HeLa (HeLa-A3) cell membranes
T4 sequence (P0DMS8 1-318): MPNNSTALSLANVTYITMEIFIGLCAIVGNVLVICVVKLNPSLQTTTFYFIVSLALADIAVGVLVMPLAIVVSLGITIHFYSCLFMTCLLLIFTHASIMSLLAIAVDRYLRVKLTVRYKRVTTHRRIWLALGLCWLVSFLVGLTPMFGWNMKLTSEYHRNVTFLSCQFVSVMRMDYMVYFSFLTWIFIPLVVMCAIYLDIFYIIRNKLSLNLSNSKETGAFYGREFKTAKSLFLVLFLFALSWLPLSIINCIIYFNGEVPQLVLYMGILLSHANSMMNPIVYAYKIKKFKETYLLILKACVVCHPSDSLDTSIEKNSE
Assay: Radioligand binding competition, [3H]NECA, membranes from HeLa-A3 cells
Conditions: 1 μM, [3H]NECA, human HeLa cells, n = 2
Procedure: as §1, §2

% at 1 μM hA3 (percentage displacement of specific binding)	Structure (SMILES)
3%	CC1=C(C(=O)OC(C)C)C(c2ccsc2)n2c(nc3ccc(Cl)cc32)N1 (stereo not shown) [15p]
12%	CC1=C(C(=O)OC(C)C)C(c2ccoc2)n2c(nc3ccc(Br)cc32)N1 (stereo not shown) [15t]
4%	CCOC(=O)C1=C(C)Nc2nc3ccc(Br)cc3n2C1c1cccs1 (stereo not shown) [15u]
8%	CC1=C(C(=O)OC(C)C)C(c2cccs2)n2c(nc3ccc(Br)cc32)N1 (stereo not shown) [15v]

The next lines start with the compound.

Structure (SMILES)	% at 1 μM hA3 (percentage displacement of specific binding)
CC1=C(C(=O)OC(C)C)C(c2ccsc2)n2c(nc3cc(Br)c(Br)cc32)N1 (stereo not shown) [14x]	8%
CCOC(=O)C1=C(C)Nc2nc3ccc(F)cc3n2C1c1cccs1 (stereo not shown) [15e]	11%
CC1=C(C(=O)OC(C)C)C(c2cccs2)n2c(nc3ccc(F)cc32)N1 (stereo not shown) [15f]	6%
CCOC(=O)C1=C(C)Nc2nc3ccc(Cl)cc3n2C1c1ccco1 (stereo not shown) [15i]	4%
CC1=C(C(=O)OC(C)C)C(c2ccoc2)n2c(nc3ccc(Cl)cc32)N1 (stereo not shown) [15l]	3%
CCOC(=O)C1=C(C)Nc2nc3ccc(Cl)cc3n2C1c1cccs1 (stereo not shown) [15m]	1%
CC1=C(C(=O)OC(C)C)C(c2cccs2)n2c(nc3ccc(Cl)cc32)N1 (stereo not shown) [15n]	1%
CCOC(=O)C1=C(C)Nc2nc3ccc(Cl)cc3n2C1c1ccsc1 (stereo not shown) [15o]	3%
CCOC(=O)C1=C(C)Nc2nc3ccc(Br)cc3n2C1c1ccco1 (stereo not shown) [15q]	5%
